Source: ChEMBL document CHEMBL1201862, “PubChem BioAssay data set” (2004)
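The compound was tested at five concentrations on cells cultured in 96-well plates, with a 48-hour exposure period. Here, GI50 denotes the concentration required for 50% inhibition of growth.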 Calls of active or inactive are those of the source. Cut-off read from the data, not from the text of the source: active = GI50 up to about 1.1 µM and inactive = higher.

What was measured:
Assay in all cases: NCI anticancer screen, dose series, 48 h
U-251 = test system: U-251
SN12C = test system: SN12C
RXF 393 = test system: RXF 393
SR = test system: SR
NCI-H23 = test system: NCI-H23
HCC 2998 = test system: HCC 2998
CCRF-CEM = test system: CCRF-CEM
SW-620 = test system: SW-620
UACC-62 = test system: UACC-62
SK-MEL-5 = test system: SK-MEL-5
OVCAR-5 = test system: OVCAR-5
HCT-15 = test system: HCT-15
SK-MEL-2 = test system: SK-MEL-2
NCI-H226 = test system: NCI-H226
OVCAR-4 = test system: OVCAR-4
Malme-3M = test system: Malme-3M
HL-60 = test system: HL-60
SNB-75 = test system: SNB-75

Row | Structure (SMILES) | GI50 (U-251) | GI50 (SN12C) | GI50 (RXF 393) | GI50 (SR) | GI50 (NCI-H23) | GI50 (HCC 2998) | GI50 (CCRF-CEM) | GI50 (SW-620) | GI50 (UACC-62) | GI50 (SK-MEL-5) | GI50 (OVCAR-5) | GI50 (HCT-15) [µM] | GI50 (SK-MEL-2) | GI50 (NCI-H226) | GI50 (OVCAR-4) | GI50 (Malme-3M) | GI50 (HL-60) | GI50 (SNB-75)
1 | COc1ccc(NC(=O)CC(=O)n2nc(-c3ccccc3)c(/N=N/c3ccccc3C(=O)O)c2-c2ccccc2)cc1 | 42.6 µM (inactive) | > 100 µM (inactive) | 28.8 µM (inactive) | 62.2 µM (inactive) | > 100 µM (inactive) | > 100 µM (inactive) | > 100 µM (inactive) | > 100 µM (inactive) | > 100 µM (inactive) | > 100 µM (inactive) | > 100 µM (inactive) | > 100 | > 100 µM (inactive) | 69.3 µM (inactive) | 92.5 µM (inactive) | – | – | –
2 | COC(=O)Cc1cc(=O)[nH]c2c1C(=O)CCC2 | > 100 µM (inactive) | > 100 µM (inactive) | > 100 µM (inactive) | > 100 µM (inactive) | > 100 µM (inactive) | > 100 µM (inactive) | > 100 µM (inactive) | > 100 µM (inactive) | – | > 100 µM (inactive) | > 100 µM (inactive) | > 100 | > 100 µM (inactive) | > 100 µM (inactive) | – | > 100 µM (inactive) | > 100 µM (inactive) | –
3 | O=[N+]([O-])c1cc2c(cc1O)[nH]c1cccc([N+](=O)[O-])c12 | – | > 100 µM (inactive) | – | > 100 µM (inactive) | > 100 µM (inactive) | > 100 µM (inactive) | > 100 µM (inactive) | > 100 µM (inactive) | – | 40.7 µM (inactive) | > 100 µM (inactive) | > 100 | > 100 µM (inactive) | > 100 µM (inactive) | > 100 µM (inactive) | > 100 µM (inactive) | > 100 µM (inactive) | > 100 µM (inactive)
4 | COc1ccc2c(C(=O)O)cc3cc(OC)c(OC)cc3c2c1 | > 100 µM (inactive) | > 100 µM (inactive) | > 100 µM (inactive) | > 100 µM (inactive) | > 100 µM (inactive) | > 100 µM (inactive) | > 100 µM (inactive) | > 100 µM (inactive) | > 100 µM (inactive) | 43.6 µM (inactive) | > 100 µM (inactive) | > 100 | > 100 µM (inactive) | > 100 µM (inactive) | – | > 100 µM (inactive) | 57.4 µM (inactive) | > 100 µM (inactive)
5 | COC1/C(=C\C(C)=O)c2ccccc2N1C(C)=O (stereo not given) | > 100 µM (inactive) | > 100 µM (inactive) | > 100 µM (inactive) | > 100 µM (inactive) | > 100 µM (inactive) | > 100 µM (inactive) | > 100 µM (inactive) | > 100 µM (inactive) | > 100 µM (inactive) | – | – | > 100 | > 100 µM (inactive) | – | > 100 µM (inactive) | – | > 100 µM (inactive) | > 100 µM (inactive)
6 | c1ccc2c(CNCCCN3CCN(CCCNCc4cccc5ccccc45)CC3)cccc2c1 | 1.73 µM (inactive) | 3.68 µM (inactive) | 1.08 µM (active) | 0.655 µM (active) | 11.4 µM (inactive) | – | 1.24 µM (inactive) | 1.77 µM (inactive) | 1.79 µM (inactive) | 1.74 µM (inactive) | 2.15 µM (inactive) | 1.8 | 1.65 µM (inactive) | 2.81 µM (inactive) | 2.21 µM (inactive) | 2.06 µM (inactive) | 1.44 µM (inactive) | 1.74 µM (inactive)
7 | c1ccc2cc(-c3cc4ccccc4s3)ccc2c1 | > 100 µM (inactive) | > 100 µM (inactive) | – | > 100 µM (inactive) | > 100 µM (inactive) | > 100 µM (inactive) | > 100 µM (inactive) | > 100 µM (inactive) | > 100 µM (inactive) | > 100 µM (inactive) | > 100 µM (inactive) | > 100 | > 100 µM (inactive) | > 100 µM (inactive) | > 100 µM (inactive) | > 100 µM (inactive) | > 100 µM (inactive) | 23.1 µM (inactive)
